Where “and” joins values, the source holds several entries; their conditions need not be identical. Equal values may be shown once. Read-outs that look alike come from different tables or passages of the source.
Legend:
[1] = target: T1, mineralcorticoid receptor (Homo sapiens, UniProt P08235); experiment: MR antagonism, luciferase reporter cell line assay; format: cell-based; conditions: 16 hours incubation, luminescence
T1 sequence (P08235 1-984): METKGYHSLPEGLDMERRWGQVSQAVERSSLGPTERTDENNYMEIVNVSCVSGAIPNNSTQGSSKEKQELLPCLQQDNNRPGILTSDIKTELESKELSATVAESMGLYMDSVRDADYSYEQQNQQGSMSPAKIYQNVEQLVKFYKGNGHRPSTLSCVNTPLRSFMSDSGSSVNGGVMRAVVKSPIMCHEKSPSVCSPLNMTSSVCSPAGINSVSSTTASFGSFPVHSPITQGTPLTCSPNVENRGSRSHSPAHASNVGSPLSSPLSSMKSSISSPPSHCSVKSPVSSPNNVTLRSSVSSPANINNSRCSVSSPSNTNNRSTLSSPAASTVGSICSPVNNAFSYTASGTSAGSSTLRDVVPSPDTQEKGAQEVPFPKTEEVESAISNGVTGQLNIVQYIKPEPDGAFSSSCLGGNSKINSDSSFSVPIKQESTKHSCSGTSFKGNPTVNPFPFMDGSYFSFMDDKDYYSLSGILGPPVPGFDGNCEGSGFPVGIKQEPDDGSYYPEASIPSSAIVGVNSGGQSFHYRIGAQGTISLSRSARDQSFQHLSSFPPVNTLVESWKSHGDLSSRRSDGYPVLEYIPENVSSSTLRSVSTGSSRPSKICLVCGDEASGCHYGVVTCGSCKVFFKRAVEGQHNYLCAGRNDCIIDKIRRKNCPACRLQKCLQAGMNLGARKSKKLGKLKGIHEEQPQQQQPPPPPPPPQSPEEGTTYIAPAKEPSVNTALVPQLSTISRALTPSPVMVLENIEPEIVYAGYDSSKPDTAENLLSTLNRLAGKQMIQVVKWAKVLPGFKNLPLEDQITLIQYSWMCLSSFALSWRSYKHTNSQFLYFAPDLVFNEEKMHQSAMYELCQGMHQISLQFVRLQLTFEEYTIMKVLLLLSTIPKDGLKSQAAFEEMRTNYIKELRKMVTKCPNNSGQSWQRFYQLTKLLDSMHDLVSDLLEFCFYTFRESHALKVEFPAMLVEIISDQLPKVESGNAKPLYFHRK
Method: The derivatives according to the invention having the general chemical formula 1 have a very strong gestagenic activity. […] They should therefore have in vivo potassium-retaining, natriuretic (antimeralcorticoid) action. These properties were determined using the test described below:
For the culturing of the cells used for the assay, the culture medium used was DMEM (Dulbecco's Modified Eagle Medium: […] of glucose; PAA, #E15-009) with 10% FCS (Biochrom, S0115, batch #615B), 4 mM L-glutamine, 1% penicillin/streptomycin, 1 mg/ml of G418 and 0.5 μg/ml of puromycin.
Reporter cell lines were grown in a density of 4×10^4 cells per hollow in white, nontransparent tissue culture plates in each case having 96 hollows (PerkinElmer, #P12-106-017) and kept in 6% DCC—FCS (activated carbon-treated serum, for the removal of interfering components contained in the serum). The compounds to be investigated were added eight days later, and the cells were incubated with the compounds for 16 hours. The experiments were carried out in triplicate. At the end of the incubation, the effector-containing medium was removed and replaced by lysis buffer. After luciferase assay substrate (promega, #E1501) had been added, the plates containing the 96 hollows were then introduced into a microplate luminometer (Pherastar, BMG labtech), and the luminescence was measured. The IC50 values were evaluated using software for the calculation of dose-activity relationships.

PR = target: T2, PR (Rattus norvegicus, UniProt Q63449); experiment: maintenance of pregnancy test on the rat; format: in vivo; conditions: ovarectomized pregnant rats; for PR in vivo ED50: pregnancy-maintaining dose, s.c. once daily with oestrone 5 μg/kg/day
T2 construct: The maintenance of pregnancy test on ovarectomized rats serves for the determination of the peripheral gestagenic activity of a compound; from tissue; host or cells: whole animal: pregnant, ovariectomized rats
T2 sequence (Q63449 1-923): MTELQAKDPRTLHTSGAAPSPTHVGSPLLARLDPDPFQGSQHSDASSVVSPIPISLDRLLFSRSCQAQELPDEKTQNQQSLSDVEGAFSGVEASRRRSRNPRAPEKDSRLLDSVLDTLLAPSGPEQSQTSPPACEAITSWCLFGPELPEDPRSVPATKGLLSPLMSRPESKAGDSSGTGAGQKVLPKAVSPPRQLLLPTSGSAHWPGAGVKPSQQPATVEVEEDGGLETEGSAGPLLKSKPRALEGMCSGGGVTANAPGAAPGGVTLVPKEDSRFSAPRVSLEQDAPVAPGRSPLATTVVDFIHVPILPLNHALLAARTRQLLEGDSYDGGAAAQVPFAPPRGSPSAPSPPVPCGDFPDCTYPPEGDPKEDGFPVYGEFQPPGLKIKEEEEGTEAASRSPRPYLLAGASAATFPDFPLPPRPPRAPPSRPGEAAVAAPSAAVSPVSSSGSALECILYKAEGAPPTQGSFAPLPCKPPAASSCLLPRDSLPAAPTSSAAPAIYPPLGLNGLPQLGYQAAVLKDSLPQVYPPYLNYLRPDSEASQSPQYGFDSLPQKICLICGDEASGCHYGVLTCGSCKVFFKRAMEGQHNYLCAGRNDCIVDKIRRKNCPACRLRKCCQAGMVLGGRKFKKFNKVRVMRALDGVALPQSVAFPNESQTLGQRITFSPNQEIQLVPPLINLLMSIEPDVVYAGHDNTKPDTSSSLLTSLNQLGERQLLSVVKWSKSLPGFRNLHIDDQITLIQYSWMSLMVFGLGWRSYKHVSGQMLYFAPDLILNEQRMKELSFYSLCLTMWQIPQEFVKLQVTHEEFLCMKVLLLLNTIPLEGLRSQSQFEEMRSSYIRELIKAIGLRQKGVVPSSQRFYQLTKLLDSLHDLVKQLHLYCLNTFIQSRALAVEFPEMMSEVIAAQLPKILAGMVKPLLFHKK
From the text: Carrying out the maintenance of pregnancy test on the rat:
In pregnant rats, the removal of the corpora lutea or oophorectomy induces an abortion. By means of the exogenous administration of progestins (gestagens) in combination with a suitable dose of an oestrogen, the maintenance of pregnancy is possible. The maintenance of pregnancy test on ovarectomized rats serves for the determination of the peripheral gestagenic activity of a compound.
Rats were paired overnight during proestrus. Pairing was checked on the morning of the following day by the appraisal of a vaginal smear. The presence of the sperm was evaluated here as day 1 of a commencing pregnancy. On day 8 of the pregnancy, the animals were ovarectomized under ether anaesthesia. The treatment with test compound and exogenous oestrogen (oestrone, 5 μg/kg/day) was carried out subcutaneously once daily from day 8 to day 15 or day 21 of the pregnancy. The first administration on day 8 was carried out two hours before oophorectomy. Intact control animals were given exclusively vehicle.
At the end of the experiment (day 15 or day 21), the animals were sacrificed under a CO2 atmosphere, and live foetuses (foetuses having a beating heart) and implantation sites (early resorptions and dead foetuses including autolysis and atrophic placentas) were counted in both uterine horns. On day 22, it was moreover possible to examine foetuses for malformations. In uteri without foetuses or implantation sites, the number of nidation sites was determined by staining with 10% strength ammonium sulphide solution. The maintenance of pregnancy rate was calculated as the quotient of the number of living foetuses and the total number of nidation sites (both resorbed and dead foetuses and nidation sites). For drospirenone, this value is 3.5 mg/kg/day.

[2] = reporter cell lines, read-out: MR Antagonism IC50
[3] = MR Antagonism IC50, reporter cell lines

Structure (SMILES)	MR Antagonism activity [% of the maximum effect] ([1]; reporter cell lines)	IC50 [1, 2]	PR in vivo ED50 (PR)	IC50 [1, 3]	pregnancy-maintaining dose (ED50) (PR; subcutaneously once daily with oestrone 5 μg/kg/day)
C[C@]12CC[C@H]3[C@@H](C=CC4=CC(=O)CC[C@@H]43)[C@@H]1[C@@H]1C[C@@H]1[C@@H]2C#N [17β-Cyano-15β,16β-methylene-19-nor-androsta-4,6-dien-3-one]	108.51 % of the maximum effect	15 nM	3.3 mg/kg/d s.c.		
C[C@]12CC[C@H]3[C@@H](CCC4=CC(=O)CC[C@@H]43)[C@@H]1[C@H]1C[C@H]1[C@@H]2C#N [17β-Cyano-15α,16α-methylene-19-nor-androst-4-en-3-one]	93.01 % of the maximum effect	16 nM	0.8 mg/kg/d s.c.		
C[C@@H]1CC2=CC(=O)CC[C@@H]2[C@H]2CC[C@@]3(C)[C@@H](CC[C@]3(C)C#N)[C@@H]21 [17β-Cyano-7α,17α-bismethyl-19-nor-androst-4-en-3-one]	96.20 % of the maximum effect		1 .0 mg/kg/d s.c.	31 nM	
C[C@]1(C#N)[C@H]2C[C@H]2[C@H]2[C@@H]3C=CC4=CC(=O)CC[C@@H]4[C@H]3CC[C@@]21C [17β-Cyano-17α-methyl-15β,16β-methylene-19-nor-androsta-4,6-dien-3-one]	114 % of the maximum effect	190 nM	2.1 mg/kg/d s.c.		
C[C@@H]1CC2=CC(=O)CC[C@@H]2[C@H]2CC[C@]3(C)[C@@H](C#N)CC[C@H]3[C@@H]21 [17β-Cyano-7α-methyl-19-nor-androst-4-en-3-one]	108.02 % of the maximum effect	8.2 nM	0.33 mg/kg/d s.c.		
C[C@]12CCC(=O)C=C1[C@@H]1C[C@@H]1[C@H]1[C@@H]3[C@@H]4C[C@@H]4[C@@]4(CCC(=O)O4)[C@@]3(C)CC[C@@H]12 [drospirenone, 6β,7β-15β,16β-dimethylene-3-oxo-17-pregn-4-ene-21,17β-carbolactone, reference compound]					3.5 mg/kg/day
CC[C@]1(C#N)[C@H]2C[C@H]2[C@H]2[C@@H]3CCC4=CC(=O)CC[C@@H]4[C@H]3CC[C@@]21C [17β-Cyano-17α-ethyl-15β,16β-methylene-19-nor-androst-4-en-3-one]	106.4 % of the maximum effect	440 nM	1.9 mg/kg/d s.c.		
C[C@]1(C#N)[C@H]2C[C@H]2[C@H]2[C@@H]3CCC4=CC(=O)CC[C@@H]4[C@H]3CC[C@@]21C [17β-Cyano-17α-methyl-15β,16β-methylene-19-nor-androst-4-en-3-one]	96.00 % of the maximum effect	29 nM	0.8 mg/kg/d s.c.		
C[C@]12CC[C@H]3[C@@H](CCC4=CC(=O)CC[C@@H]43)[C@@H]1[C@@H]1C[C@@H]1[C@@H]2C#N [17β-Cyano-15β,16β-methylene-19-nor-androst-4-en-3-one]	95.57 % of the maximum effect	4.5 nM	0.84 mg/kg/d s.c.		
C[C@@H]1CC2=CC(=O)CC[C@@H]2[C@H]2CC[C@@]3(C)[C@@H]([C@@H]4C[C@@H]4[C@@H]3C#N)[C@@H]21 (single isomer, unassigned) [17β-Cyano-15β,16β-methylene-7α-methyl-19-nor-androst-4-en-3-one]				8.3 nM and 10.3 nM	
CC[C@]1(C#N)[C@H]2C[C@H]2[C@H]2[C@@H]3[C@@H]4C[C@@H]4C4=CC(=O)CC[C@@H]4[C@H]3CC[C@@]21C (single isomer, unassigned) [17β-cyano-17α-ethyl-6α,7α-methylene-15β,16β-methylene-19-nor-androst-4-en-3-one]			0.22 mg/kg/d s.c.	90.2 nM	
